Read-outs that look alike come from different tables or passages of the source.
What was measured:
[1] = test system: STAT5; assay: Immunoblotting (Western blot) analysis of STAT5 degradation efficiency of degraders in treated cells; type: cell-based
How it was run: (§1)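 Protein levels of STAT5 and STAT6 were assessed in cells cultured at 37 °C in 10% FBS medium after compound exposure, by quantitative fluorescent Western blotting normalised to equal loading and referenced to GAPDH.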

[2] = target: T1, STAT6 (Homo sapiens, UniProt P42226); assay: Immunoblotting (Western blot) analysis of STAT6 degradation efficiency of degraders in treated cells; type: cell-based
T1 construct: endogenous in cells; host or cells: MOLM-16, KU-812, SKNO1, MB231, L1236
T1 sequence (P42226 1-847): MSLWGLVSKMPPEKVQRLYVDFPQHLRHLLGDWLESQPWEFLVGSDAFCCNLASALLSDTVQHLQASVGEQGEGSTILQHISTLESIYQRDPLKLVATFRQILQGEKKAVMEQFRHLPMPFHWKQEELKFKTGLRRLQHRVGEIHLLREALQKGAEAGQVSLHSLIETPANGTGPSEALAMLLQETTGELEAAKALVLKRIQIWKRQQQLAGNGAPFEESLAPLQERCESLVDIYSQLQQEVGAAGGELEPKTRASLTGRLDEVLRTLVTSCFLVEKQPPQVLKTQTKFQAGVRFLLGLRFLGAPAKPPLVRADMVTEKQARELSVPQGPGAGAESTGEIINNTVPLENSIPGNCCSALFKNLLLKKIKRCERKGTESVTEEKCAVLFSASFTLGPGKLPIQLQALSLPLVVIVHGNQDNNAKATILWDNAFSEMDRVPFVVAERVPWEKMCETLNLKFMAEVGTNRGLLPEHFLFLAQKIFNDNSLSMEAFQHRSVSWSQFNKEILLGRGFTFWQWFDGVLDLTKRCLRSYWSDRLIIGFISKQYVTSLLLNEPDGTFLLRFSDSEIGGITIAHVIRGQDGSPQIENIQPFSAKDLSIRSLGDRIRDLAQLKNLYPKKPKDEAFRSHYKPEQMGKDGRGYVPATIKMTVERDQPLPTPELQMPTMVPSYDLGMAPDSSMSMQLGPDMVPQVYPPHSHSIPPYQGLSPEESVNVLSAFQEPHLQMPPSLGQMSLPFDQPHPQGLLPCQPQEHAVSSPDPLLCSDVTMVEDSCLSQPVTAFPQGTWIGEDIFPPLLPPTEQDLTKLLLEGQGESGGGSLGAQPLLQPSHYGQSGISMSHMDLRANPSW
How it was run: as §1

[3] = SKNO1 cells, read-out: DC50 S5 SKNO1
[4] = L1236 cells, read-out: DC50 S6 L1236
[5] = MB231 cells, read-out: DC50 S6 MB231
[6] = MOLM-16 cells, numeric bound, read-out: DC50 S6 MOLM-16
[7] = MOLM-16 cells, class symbols, read-out: DC50 S5 MOLM-16

CN(C(=O)[C@@H]1C[C@@H](OCC(=O)NCCCCCCCCC#Cc2cccc3c2CN(C2CCC(=O)NC2=O)C3=O)CN1C(=O)[C@@H](NC(=O)c1cc2cc(C(F)(F)P(=O)(O)O)ccc2s1)C(C)(C)C)c1ccc(Br)cc1 (stereo partly drawn) [Compound 414, ((2-(((2S)-1-((2S,4R)-2-((4-bromophenyl)(methyl)carbamoyl)-4-(2-((10-(2-(2,6-dioxopiperidin-3-yl)-1-oxoisoindolin-4-yl)dec-9-yn-1-yl)amino)-2-oxoethoxy)pyrrolidin-1-yl)-3,3-dimethyl-1-oxobutan-2-yl)carbamoyl)benzo[b]thiophen-5-yl)difluoromethyl)phosphonic acid]
DC50 [1, 3]: > 10 µM | DC50 [2, 4]: > 10 µM | DC50 [2, 5]: > 10 µM

CC(C)(C)C(=O)OCOP(=O)(O)C(F)(F)c1ccc2sc(C(=O)N[C@H](C(=O)N3CCC[C@H]3C(=O)N(CCOCCOCC#Cc3cccc4c3CN(C3CCC(=O)NC3=O)C4=O)c3ccc4ccccc4c3)C(C)(C)C)cc2c1 (stereo partly drawn) [Compound 678, ((((2-(((2S)-1-((2S)-2-((2-(2-((3-(2-(2,6-dioxopiperidin-3-yl)-1-oxoisoindolin-4-yl)prop-2-yn-1-yl)oxy)ethoxy)ethyl)(naphthalen-2-yl)carbamoyl)pyrrolidin-1-yl)-3,3-dimethyl-1-oxobutan-2-yl)carbamoyl)benzo[b]thiophen-5-yl)difluoromethyl)(hydroxy)phosphoryl)oxy)methyl pivalate]
DC50 ([1]; MOLM-16 cells, numeric bound, read-out: DC50 S5 MOLM-16): > 0.3 µM | DC50 [2, 6]: > 0.3 µM

CN(C(=O)[C@@H]1C[C@@H](OCC(=O)NCCCCCC#Cc2cccc3c2CN(C2CCC(=O)NC2=O)C3=O)CN1C(=O)[C@@H](NC(=O)c1cc2cc(C(F)(F)P(=O)(O)O)ccc2s1)C(C)(C)C)c1ccc(Br)cc1 (stereo partly drawn) [Compound 412, ((2-(((2S)-1-((2S,4R)-2-((4-bromophenyl)(methyl)carbamoyl)-4-(2-((7-(2-(2,6-dioxopiperidin-3-yl)-1-oxoisoindolin-4-yl)hept-6-yn-1-yl)amino)-2-oxoethoxy)pyrrolidin-1-yl)-3,3-dimethyl-1-oxobutan-2-yl)carbamoyl)benzo[b]thiophen-5-yl)difluoromethyl)phosphonic acid]
DC50 [1, 3]: > 10 µM | DC50 [2, 4]: > 10 µM | DC50 [2, 5]: > 10 µM

CN(CCCC#Cc1cccc2c1CN(C1CCC(=O)NC1=O)C2=O)C(=O)CCN(C(=O)[C@@H]1CCCN1C(=O)[C@@H](NC(=O)c1cc2cc(C(F)(F)P(=O)(O)OCOC(=O)C(C)(C)C)ccc2s1)C(C)(C)C)c1ccc2ccccc2c1 (stereo partly drawn) [Compound 673, ((((2-(((2S)-1-((2S)-2-((3-((5-(2-(2,6-dioxopiperidin-3-yl)-1-oxoisoindolin-4-yl)pent-4-yn-1-yl)(methyl)amino)-3-oxopropyl)(naphthalen-2-yl)carbamoyl)pyrrolidin-1-yl)-3,3-dimethyl-1-oxobutan-2-yl)carbamoyl)benzo[b]thiophen-5-yl)difluoromethyl)(hydroxy)phosphoryl)oxy)methyl pivalate]
DC50 [1, 7]: < 0.1 µM | DC50 [2, 6]: > 0.3 µM

CN(CCCC#Cc1cccc2c1CN(C1CCC(=O)NC1=O)C2=O)C(=O)CCN(C(=O)[C@@H]1CCCN1C(=O)[C@@H](NC(=O)c1cc2cc(C(F)(F)P(=O)(O)O)ccc2s1)C(C)(C)C)c1ccc(-c2nccs2)cc1 (stereo partly drawn) [Compound 681, ((2-(((2S)-1-((2S)-2-((3-((5-(2-(2,6-Dioxopiperidin-3-yl)-1-oxoisoindolin-4-yl)pent-4-yn-1-yl)(methyl)amino)-3-oxopropyl)(4-(thiazol-2-yl)phenyl)carbamoyl)pyrrolidin-1-yl)-3,3-dimethyl-1-oxobutan-2-yl)carbamoyl)benzo[b]thiophen-5-yl)difluoromethyl)phosphonic acid]
DC50 ([1]; KU-812 cells, read-out: DC50 S5 KU-812): 0.1 to 1 µM | DC50 [1, 7]: < 0.1 µM | DC50 [1, 3]: 0.1 to 1 µM | DC50 ([2]; KU-812 cells, read-out: DC50 S6 KU-812): > 10 µM | DC50 ([2]; MOLM-16 cells, class symbols, read-out: DC50 S6 MOLM-16): > 10 µM | DC50 ([2]; SKNO1 cells, read-out: DC50 S6 SKNO1): > 10 µM

Source: patent publication US20230295197A1, “STAT5 and STAT6 Degraders and Uses Thereof” (REGENTS OF THE UNIVERSITY OF MICHICAN, priority 2022, published 2023)
